Results taken from article PMC11320734 (ACS Pharmacology & Translational Science, 2024).
Values joined by “and” are separate entries in the source; they are usually repeats but may differ in a detail not shown here. Identical values can stand only once. Like-named read-outs stand apart in the source and are kept apart here.

What was measured:
[1] = tested on: UUO-induced kidney fibrosis; experiment: Unilateral ureteral obstruction (UUO) model of kidney fibrosis; assay type: in vivo, Sprague–Dawley rats
Method: In the ischemia/reperfusion (I/R) model of acute kidney injury (AKI),[47],[48] the compounds were administered orally by gavage to C57BL/6 mice 30 min before ischemia obtained by clamping both renal arteries and veins for 25 min, followed by 24 h of reperfusion. Mice were anesthetized using xylazine (10 mg kg^–1)/ketamine (100 mg kg^–1) injected intraperitoneally. Sham treated mice were treated identically except for the temporary closure of the renal vessels. After 24 h, under reanesthesia, plasma was taken for biomarker analysis. Thereafter, mice still in deep anesthesia were sacrificed by cervical dislocation. Creatinine, BUN (blood urea nitrogen), NGAL (neutrophil gelatinase-associated lipocalin), osteopontin, and KIM1 (kidney injury molecule-1) levels were determined using the following commercially available standard assays: creatinine: Roche Diagnostics 03263991, BUN: Roche Diagnostics 04460715, NGAL: BioPorto, Kit046 + Kit042, osteopontin: R&D Systems, MOST00, KIM-1: Abnova, KA1064. To assess fibrotic effects, we used the unilateral ureteral obstruction (UOO) model in Sprague–Dawley rats.[49] For the UOO model, rats were sacrificed after 5, 8, and 11 days and the percentage of PicroSirius Red positive areas (indicator of collagen III–I deposition) were measured in 4 μm histological cross sections of the kidney after 2% paraformaldehyde perfusion fixation and paraffin embedding. The extend of kidney fibrosis was quantified based on PicroSirius Red staining of 10 renal sections about 1 mm apart from each kidney. The collagen–III-I-positive pixel counts were determined in the cortical aspect of each kidney section from 10 optical fields using a 40× objective. As the total area analyzed was identical for all kidneys under investigation, the absolute number of pixels was used as the relevant readout. Vehicle treated animals received saline gavage only. The details of PicroSirius Red staining were previously described.[22]

[2] = Single-dose pharmacokinetics in male Wistar rats; assay type: in vivo; conditions: rat, plasma
Method: To characterize the pharmacokinetic behavior of RNB-61, studies in rodents were conducted at the in vivo facility of F. Hoffmann-La Roche Ltd. (Basel, Switzerland). The plasma-concentration time profile was studied in rodents after single-dose RNB-61 administration by oral gavage (p.o. microsuspension excipients 7.5% gelatin/0.62% NaCl) and intravenous bolus injection (i.v. solution, excipients NMP:NaCl (30:70)). Three groups of male Wistar rats (n = 2 per group) were administered RNB-61 either at 1 mg kg^–1 i.v., 3 mg kg^–1 p.o., or 26 mg kg^–1 p.o. Plasma samples were drawn at 0.083, 0.25, 0.5, 1, 2, 4, 8, and 24 postdose in the i.v. group and at 0.25, 0.5, 0.75, 1.5, 3, 5, 8, and 24 h postdose in the p.o. groups. The samples were analyzed for RNB-61 concentration by LC/MS-MS. For the LC/MS-MS analysis, and the samples were prepared by adding 100 uL to 400 uL ACN with ISTD (100 ng/mL Bosantan in ACN/MeOH 1/1), stirring, and centrifuging (4000 rpm, 65’). 100 uL of the supernatant were pipetted and diluted with 400 μL H2O at pH 3. The analytes were separated on a Restek C18 column (5 μm, 1.0 × 3 mm). The mobile phase consisted of water containing 0.1% HCOOH as solvent A and ACN containing 0.1% HCOOH as solvent B. The gradient curve starting with 5% B was changed to 90% B between 0.4 and 0.6 min and further increased to 95% B between 0.6 and 1.2 min. This was maintained until 1.4 min and then reduced and kept at 5% B between 1.45 and 2.0 min. The mass spectrometer was operated in the positive mode. All LC-MS/MS was done using the Agilent RapidFire Analyzer software (version 4.3). The pharmacokinetic parameters were estimated by noncompartmental analysis in the Certara WinNonlin software (version 5.3). A similar study design was run in mice with three groups receiving 2 mg kg^–1 i.v., 4 mg kg^–1 p.o., or 26 mg kg^–1 p.o., and plasma sampling occurring in a composite profile (n = 2 for each time point) up to 7 or 24 h postdose. Male C57/BL6 mice (n = 5 per group) were used to study the influence of P-gp efflux on brain penetration. Two groups of mice were administered RNB-61 by i.v. bolus injection at 1 mg kg^–1 (2 groups). In order to block P-gp activity, an i.v. bolus of 5 mg kg^–1 tariquidar[46] was injected into one group 30 min prior to RNB-61. Plasma was collected at 0.083, 0.25, 0.5, 2, 4, and 7 h postdose in a composite profile. Brain, CSF, and vitreous body were collected at terminal time points 0.5, 2, 4, and 7 h postdose.

human wild type CB2R [3] = target: T1, human wild type CB2R (Homo sapiens, UniProt P34972); experiment: [35S]GTPγS binding assay (G-protein activation); assay type: biochemical; set-up: host or cells: CHO cells (Pathhunter)
T1 sequence (P34972 whole entry): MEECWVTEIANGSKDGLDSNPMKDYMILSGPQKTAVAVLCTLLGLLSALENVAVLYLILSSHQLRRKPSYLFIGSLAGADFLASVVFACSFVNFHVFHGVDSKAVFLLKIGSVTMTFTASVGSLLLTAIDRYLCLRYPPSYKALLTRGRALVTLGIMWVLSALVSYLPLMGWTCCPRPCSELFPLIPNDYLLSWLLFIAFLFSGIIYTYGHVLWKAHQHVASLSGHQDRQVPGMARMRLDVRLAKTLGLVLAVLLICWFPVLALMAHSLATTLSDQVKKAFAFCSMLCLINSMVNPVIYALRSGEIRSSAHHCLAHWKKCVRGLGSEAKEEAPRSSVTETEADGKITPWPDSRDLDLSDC

human wild type CB2R [4] = target: T1, human wild type CB2R; experiment: cAMP assay in CHO cells; assay type: cell-based; set-up: expressed in transfected cells; host or cells: CHO cells
[5] = expressed as percentage, compared with CP55,940

In the case of Cn1c(C(C)(C)C)cc(=NC(=O)c2cc(C(F)(F)F)ccc2OCC(C)(C)O)n1CC1CCC1 [RNB-61], the “inhibition of accumulation of collagen–III-I” value ([1]; 3 mg kg^–1, day 8) is reported as 61%, the “collagen–III-I positive area vs vehicle” value ([1]; all three doses (printed 0.3, 3, and 3 mg kg^–1), day 8) is reported as “significant reduction” and the AUC(0-inf) ([2]; iv, 1 mg kg^–1 i.v.) is reported as 5170 ng·h/mL. For the same compound, the Tmax ([2]; iv, 1 mg kg^–1 i.v.) was 0.083 h, the clearance ([2]; iv, 1 mg kg^–1 i.v.) was 3.5 mL/min/kg and the half-life ([2]; iv, 1 mg kg^–1 i.v.) was 6 h. For the same compound, the Cmax ([2]; iv, 1 mg kg^–1 i.v., read-out: Cmax) was 619 ng/mL, the Cmax ([2]; iv, 1 mg kg^–1 i.v., read-out: Cmax (molar)) was 1280 nM and the Vd ([2]; iv, 1 mg kg^–1 i.v., read-out: Vss) was 1.6 L/kg. The AUC(0-inf) ([2]; po, 3 mg kg^–1 p.o.) was 7410 ng·h/mL, the Tmax ([2]; po, 3 mg kg^–1 p.o.) was 5.5 h and the bioavailability ([2]; po, 3 mg kg^–1 p.o.) was 48%. It also gave a half-life ([2]; po, 3 mg kg^–1 p.o.) of 7.1 h, a Cmax ([2]; po, 3 mg kg^–1 p.o., read-out: Cmax) of 446 ng/mL and a Cmax ([2]; po, 3 mg kg^–1 p.o., read-out: Cmax (molar)) of 926 nM. The AUC(0-inf) ([2]; po, 26 mg kg^–1 p.o.) was 117000 ng·h/mL, the Tmax ([2]; po, 26 mg kg^–1 p.o.) was 3 h and the bioavailability ([2]; po, 26 mg kg^–1 p.o.) was 87%. It also gave a half-life ([2]; po, 26 mg kg^–1 p.o.) of 49 h, a Cmax ([2]; po, 26 mg kg^–1 p.o., read-out: Cmax) of 1710 ng/mL and a Cmax ([2]; po, 26 mg kg^–1 p.o., read-out: Cmax (molar)) of 3500 nM. The EC50 (human wild type CB2R [3]; Figure 2) was 0.33 nM and 1.65 nM, the Emax (human wild type CB2R [3]; [5]) was 100% and the “Emax [35S]GTPγS binding” value (human wild type CB2R [3]; [5]) was “same efficacy (Emax) as CP55,940”. The Emax (human wild type CB2R [4]; CHO, percentage normalized to 1 μM CP55940, read-out: Emax cAMP inhibition) was 100%, the EC50 (human wild type CB2R [4]; Table 1, mean ± SD, read-out: EC50 hCB2R (cAMP assay)) was 0.31 ± 0.07 nM and the “Emax cAMP inhibition” value (human wild type CB2R [4]; percentage normalized to 1 μM CP55940, listed as RBN-61) was “same efficacy (Emax) as CP55,940”.
